According to patent US20200095296A1, “USE OF PEPTIDES AS BIOMARKERS IN THE DIAGNOSIS, CONFIRMATION AND TREATMENT OF A NEUROLOGICAL DISORDER AND TCR AND/OR HLA IMMUNOPROFILING IN NEURODEGENERATIVE DISEASE” (THE TRUSTEES OF COLUMBIA UNIVERSITY IN THE CITY OF NEW YORK, priority 2017, published 2020):
Read-outs that look alike come from different tables or passages of the source.

Experiments:
DPB1*03:01 = target: T1, DPB1*03:01 (Homo sapiens, UniProt P04440+P20036, A65V/A84D/A85E/E86D/F38Y/G113D/G114E/G40L/I94L/L37V/M105V/M116V/P115A/R125K/T199I); assay: competition binding assay, purified HLA DPB1*03:01
T1 sequence (P20036 29-260): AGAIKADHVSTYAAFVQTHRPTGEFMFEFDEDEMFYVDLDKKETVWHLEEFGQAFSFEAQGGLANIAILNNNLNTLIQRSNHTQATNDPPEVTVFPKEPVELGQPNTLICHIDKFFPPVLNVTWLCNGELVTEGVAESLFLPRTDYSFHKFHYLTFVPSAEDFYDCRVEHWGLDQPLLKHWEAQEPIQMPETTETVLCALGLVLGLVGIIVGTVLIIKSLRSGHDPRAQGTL
T1 sequence (P04440 30-258 L37V/F38Y/G40L/A65V/A84D/A85E/E86D/I94L/M105V/G113D/G114E/P115A/M116V/R125K/T199I): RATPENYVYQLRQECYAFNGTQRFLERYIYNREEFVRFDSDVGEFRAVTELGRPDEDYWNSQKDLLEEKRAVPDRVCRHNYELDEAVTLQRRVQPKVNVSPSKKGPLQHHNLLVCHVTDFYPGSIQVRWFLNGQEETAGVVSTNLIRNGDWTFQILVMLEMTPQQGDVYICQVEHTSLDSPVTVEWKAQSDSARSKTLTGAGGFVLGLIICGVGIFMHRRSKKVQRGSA

DRB1*15:01 = DRB1*15:01 (Homo sapiens, UniProt P01903+P01911); assay: competition binding assay, purified HLA DRB1*15:01
DRB1*04:05 = DRB1*04:05 (Homo sapiens, UniProt P01903+P01911, A100R/A169T/D86S/F76Y/I96L/K127E/L162R/M171V/N62H/P40V/Q125Y/R42H/S133A/S149N/S66Y/V115G/V209L/W38E); assay: competition binding assay, purified HLA DRB1*04:05
DRB3*02:02 = DRB3*02:02 (Homo sapiens, UniProt P01903+P79483, A212P/D57E/F66Y/L67A/R103Q/R218S/R40L/S89Y/T80R/V86D/Y55F/Y59H); assay: competition binding assay, purified HLA DRB3*02:02
DRB5*01:01 = DRB5*01:01 (Homo sapiens, UniProt P01903+Q30154); assay: competition binding assay, purified HLA DRB5*01:01
DRB3*01:01 = DRB3*01:01 (Homo sapiens, UniProt P01903+P79483); assay: competition binding assay, purified HLA DRB3*01:01; conditions: radiolabeled peptide competition, nM
DRB1*04:01 = DRB1*04:01 (Homo sapiens, UniProt P01903+P01911, A100K/A169T/F76Y/I96L/K127E/L162R/M171V/N62H/P40V/Q125Y/R42H/S133A/S149N/S66Y/V115G/V209L/W38E); assay: competition binding assay, purified HLA DRB1*04:01; conditions: radiolabeled peptide competition, nM
[1] = purified HLA, radiolabeled peptide competition, nM, read-out: binding to DRB1*04:05 (IC50)
[2] = purified HLA, radiolabeled peptide competition, nM, read-out: binding to DRB3*02:02 (IC50)
[3] = purified HLA, radiolabeled peptide competition, nM, read-out: binding to DRB5*01:01 (IC50)

| IC50 (DPB1*03:01; purified HLA, radiolabeled peptide competition, nM, read-out: binding to DPB1*03:01 (IC50)) [nM] | IC50 (DRB1*15:01; purified HLA, radiolabeled peptide competition, nM, read-out: binding to DRB1*15:01 (IC50)) [nM] | Structure (SMILES) | IC50 (DPB1*03:01) [nM] | IC50 (DRB1*15:01) [nM] | IC50 (DRB1*04:05) [nM] | IC50 (DRB3*02:02) [nM] | IC50 (DRB5*01:01) [nM] | IC50 (DRB3*01:01) [nM] | IC50 (DRB1*04:01) [nM] | IC50 (DRB1*04:05; [1]) [nM] | IC50 (DRB3*02:02; [2]) [nM] | IC50 (DRB5*01:01; [3]) [nM] |
| --- | --- | --- | --- | --- | --- | --- | --- | --- | --- | --- | --- | --- |
| – | – | CSCC[C@H](NC(=O)[C@H](CCC(=O)O)NC(=O)[C@H](Cc1ccc(O)cc1)NC(=O)[C@H](C)NC(=O)[C@H](CCC(=O)O)NC(=O)[C@H](CC(N)=O)NC(=O)[C@@H](N)CC(=O)O)C(=O)N1CCC[C@H]1C(=O)N[C@@H](CO)C(=O)N[C@@H](CCC(=O)O)C(=O)N[C@@H](CCC(=O)O)C(=O)NCC(=O)N[C@@H](Cc1ccc(O)cc1)C(=O)N[C@@H](CCC(N)=O)C(=O)N[C@@H](CC(=O)O)C(=O)O | > 10000 | > 10000 | 1940 | > 10000 | > 10000 | – | – | – | – | – |
| > 10000 | > 10000 | CSCC[C@H](NC(=O)[C@H](CCC(=O)O)NC(=O)[C@H](Cc1ccc(O)cc1)NC(=O)[C@H](C)NC(=O)[C@H](CCC(=O)O)NC(=O)[C@H](CC(N)=O)NC(=O)[C@@H](N)CC(=O)O)C(=O)N1CCC[C@H]1C(=O)N[C@@H](COP(=O)(O)O)C(=O)N[C@@H](CCC(=O)O)C(=O)N[C@@H](CCC(=O)O)C(=O)NCC(=O)N[C@@H](Cc1ccc(O)cc1)C(=O)N[C@@H](CCC(N)=O)C(=O)N[C@@H](CC(=O)O)C(=O)O | – | – | – | – | – | 9180 | 9130 | > 10000 | > 10000 | > 10000 |
| – | – | CSCC[C@H](NC(=O)[C@@H](N)CCC(=O)O)C(=O)N1CCC[C@H]1C(=O)N[C@@H](COP(=O)(O)O)C(=O)N[C@@H](CCC(=O)O)C(=O)N[C@@H](CCC(=O)O)C(=O)NCC(=O)N[C@@H](Cc1ccc(O)cc1)C(=O)N[C@@H](CCC(N)=O)C(=O)N[C@@H](CC(=O)O)C(=O)N[C@@H](Cc1ccc(O)cc1)C(=O)N[C@@H](CCC(=O)O)C(=O)N1CCC[C@H]1C(=O)N[C@@H](CCC(=O)O)C(=O)N[C@@H](C)C(=O)O | > 10000 | – | – | – | – | > 10000 | 4950 | > 10000 | > 10000 | > 10000 |
